The source of these data is patent US20240270821A1, “GIP/GLP1/GCG TRI-RECEPTOR AGONISTS AND USES THEREOF” (priority 2023, published 2024).

Common to all, as to assay type: cell-based
Test [1] has as its target T1, hGIPR (Homo sapiens, UniProt P48546).
T1 sequence (P48546 22-466): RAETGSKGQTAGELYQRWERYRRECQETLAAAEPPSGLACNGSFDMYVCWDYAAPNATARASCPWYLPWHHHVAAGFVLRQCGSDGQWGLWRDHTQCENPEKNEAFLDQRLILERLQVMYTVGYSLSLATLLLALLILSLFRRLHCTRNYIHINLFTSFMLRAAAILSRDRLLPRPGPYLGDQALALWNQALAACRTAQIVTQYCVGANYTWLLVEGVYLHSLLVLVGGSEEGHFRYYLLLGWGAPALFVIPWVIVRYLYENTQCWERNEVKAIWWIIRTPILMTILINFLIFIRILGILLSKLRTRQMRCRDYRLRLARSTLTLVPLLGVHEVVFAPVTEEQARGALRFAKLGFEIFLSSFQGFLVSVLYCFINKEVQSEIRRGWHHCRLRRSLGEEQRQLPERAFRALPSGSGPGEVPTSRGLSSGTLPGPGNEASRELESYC
The test is described as follows: Functional cAMP activation in the presence of 0.1% casein (no HSA). Conditions: read-out: Relative cAMP EC50, hGIPR.

For the next test, the target named is hGcgR (Homo sapiens, UniProt P47871). The test is described as above. Conditions: read-out: Relative cAMP EC50, hGcgR.
hGcgR, sequence (P47871 26-477): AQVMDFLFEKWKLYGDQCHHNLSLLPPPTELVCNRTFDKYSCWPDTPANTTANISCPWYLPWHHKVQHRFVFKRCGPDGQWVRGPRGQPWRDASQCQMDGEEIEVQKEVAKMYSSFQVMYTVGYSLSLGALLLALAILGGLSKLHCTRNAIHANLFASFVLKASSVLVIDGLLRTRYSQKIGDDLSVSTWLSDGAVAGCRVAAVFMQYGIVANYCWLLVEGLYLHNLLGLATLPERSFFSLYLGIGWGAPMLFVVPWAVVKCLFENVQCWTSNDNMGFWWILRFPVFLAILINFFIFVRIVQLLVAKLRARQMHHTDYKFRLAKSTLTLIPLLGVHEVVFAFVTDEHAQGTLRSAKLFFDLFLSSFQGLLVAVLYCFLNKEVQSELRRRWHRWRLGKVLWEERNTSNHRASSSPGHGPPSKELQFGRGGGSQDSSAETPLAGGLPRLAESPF
The target of test [2] is T2, hGLP-1R (Homo sapiens, UniProt P43220). Put plainly: Functional cAMP activity in the presence of 1% HSA. To be noted: read-out: cAMP Rel EC50, hGLP-1R.
T2 sequence (P43220 24-463): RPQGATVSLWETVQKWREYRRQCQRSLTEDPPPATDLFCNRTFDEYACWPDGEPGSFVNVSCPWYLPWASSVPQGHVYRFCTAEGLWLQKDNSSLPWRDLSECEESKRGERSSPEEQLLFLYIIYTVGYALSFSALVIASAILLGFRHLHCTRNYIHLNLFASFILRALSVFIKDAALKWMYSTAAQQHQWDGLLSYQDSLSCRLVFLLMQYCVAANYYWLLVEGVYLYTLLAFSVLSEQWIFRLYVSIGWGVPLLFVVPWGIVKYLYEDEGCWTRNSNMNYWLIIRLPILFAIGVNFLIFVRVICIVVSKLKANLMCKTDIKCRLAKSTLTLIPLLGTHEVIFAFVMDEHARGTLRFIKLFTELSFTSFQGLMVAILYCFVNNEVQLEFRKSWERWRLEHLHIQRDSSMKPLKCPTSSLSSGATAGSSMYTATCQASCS
The target in test [3] is T1, hGIPR. The test is described as follows: Functional cAMP activity in the presence of 1% HSA. Conditions: read-out: cAMP Rel EC50, hGIPR.
Test [4] concerns the target T2, hGLP-1R. The test is described as follows: Functional cAMP activation in the presence of 0.1% casein (no HSA). To be noted: read-out: Relative cAMP EC50, hGLP-1R.
For the next test, the target named is human GcgR (Homo sapiens, UniProt P47871). Put plainly: Functional cAMP activity in the presence of 1% HSA. Conditions: read-out: cAMP Rel EC50, hGcgR.
human GcgR, sequence (P47871 26-477): as the sequence (P47871 26-477) above

Each structure is given as a SMILES string. Starred links: 1 amine or outer side, 2 acyl side, 3 side chain; linkers in the order of their positions; H or OH if unused. Non-standard residues stand in square brackets, D forms with d. Residues, ends and D or L forms follow the SMILES beside them. Groups on a side chain read outwards from the residue. *: point of attachment. C18 diacid = O=C(O)CCCCCCCCCCCCCCCCC(=O)*; γGlu = O=C(O)[C@H](CCC(=O)[*:2])N[*:1]; αMeF = C[C@](N)(Cc1ccccc1)C(=O)O; αMeL = CC(C)C[C@](C)(N)C(=O)O; αMeS = C[C@](N)(CO)C(=O)O; AEEA = NCCOCCOCC(=O)O; Aib = CC(C)(N)C(=O)O
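For Relative cAMP EC50, hGIPR in this document: intracellular cAMP rise after 30 min at 37 °C read by HTRF against a standard curve, scaled between buffer alone (0%) and top control ligand concentration (100%), four-parameter fit.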
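For Relative cAMP EC50, hGLP-1R in this document: intracellular cAMP rise after 30 min at 37 °C read by HTRF, normalized between buffer only (0%) and maximal control ligand (100%), four-parameter variable-slope fit.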
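For Relative cAMP EC50, hGcgR in this document: intracellular cAMP rise after 30 min at 37 °C, read by HTRF against a cAMP standard curve, scaled from buffer only (0%) to maximal control ligand response (100%).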

With `CC[C@H](C)[C@H](NC(=O)[C@H](Cc1ccccc1)NC(=O)[C@H](C)NC(=O)C(C)(C)NC(=O)[C@H](CCC(N)=O)NC(=O)[C@H](C)NC(=O)[C@H](CCCCNC(=O)COCCOCCNC(=O)CC[C@H](NC(=O)CCCCCCCCCCCCCCCCC(=O)O)C(=O)O)NC(=O)[C@H](CCCCN)NC(=O)[C@H](CC(=O)O)NC(=O)[C@H](CC(C)C)NC(=O)[C@H](CC(C)C)NC(=O)[C@@H](NC(=O)[C@H](CO)NC(=O)[C@H](Cc1ccc(O)cc1)NC(=O)[C@H](CC(=O)O)NC(=O)[C@H](CO)NC(=O)[C@@H](NC(=O)[C@](C)(Cc1ccccc1)NC(=O)[C@@H](NC(=O)CNC(=O)[C@H](CCC(N)=O)NC(=O)C(C)(C)NC(=O)[C@@H](N)Cc1ccc(O)cc1)[C@@H](C)O)[C@@H](C)O)[C@@H](C)CC)C(=O)N[C@@H](CCC(=O)O)C(=O)N[C@@H](Cc1ccc(O)cc1)C(=O)N[C@@H](CC(C)C)C(=O)N[C@@H](CCC(=O)O)C(=O)N[C@@H](CCC(=O)O)C(=O)NCC(=O)NCC(=O)N1CCC[C@H]1C(=O)N[C@@H](CO)C(=O)N[C@@H](CO)C(=O)NCC(=O)N[C@@H](C)C(=O)N1CCC[C@H]1C(=O)N1CCC[C@H]1C(=O)N1CCC[C@H]1C(=O)N[C@@H](CO)C(N)=O` [Example 392] (H-Y[Aib]QGT[αMeF]TSDYSILLDKK([AEEA-γGlu-C18 diacid])AQ[Aib]AFIEYLEEGGPSSGAPPPS-NH2), the EC50 was found to be 0.0571 nM on hGIPR [1]; 3.02 nM at hGcgR; 41.5 nM on hGLP-1R [2]; 28.7 nM at hGIPR [3]; 0.253 nM on hGLP-1R [4]; 611 nM on human GcgR.
For the molecule `CC[C@H](C)[C@H](NC(=O)[C@H](Cc1ccccc1)NC(=O)[C@H](C)NC(=O)C(C)(C)NC(=O)[C@H](CCC(N)=O)NC(=O)[C@H](C)NC(=O)[C@H](CCCCNC(=O)COCCOCCNC(=O)CC[C@H](NC(=O)CCCCCCCCCCCCCCCCC(=O)O)C(=O)O)NC(=O)[C@H](CCCCN)NC(=O)[C@H](CC(=O)O)NC(=O)[C@H](CC(C)C)NC(=O)[C@H](CC(C)C)NC(=O)[C@@H](NC(=O)[C@](C)(CO)NC(=O)[C@H](Cc1ccc(O)cc1)NC(=O)[C@H](CC(=O)O)NC(=O)[C@H](CO)NC(=O)[C@@H](NC(=O)[C@](C)(Cc1ccccc1)NC(=O)[C@@H](NC(=O)CNC(=O)[C@H](CCC(N)=O)NC(=O)C(C)(C)NC(=O)[C@@H](N)Cc1ccc(O)cc1)[C@@H](C)O)[C@@H](C)O)[C@@H](C)CC)C(=O)N[C@@H](CCC(=O)O)C(=O)N[C@@H](Cc1ccc(O)cc1)C(=O)N[C@@H](CC(C)C)C(=O)N[C@@H](CCC(=O)O)C(=O)N[C@@H](CCC(=O)O)C(=O)NCC(=O)NCC(=O)N1CCC[C@H]1C(=O)N[C@@H](CO)C(=O)N[C@@H](CO)C(=O)NCC(=O)N[C@@H](C)C(=O)N1CCC[C@H]1C(=O)N1CCC[C@H]1C(=O)N1CCC[C@H]1C(=O)N[C@@H](CO)C(N)=O` [Example 393] (H-Y[Aib]QGT[αMeF]TSDY[αMeS]ILLDKK([AEEA-γGlu-C18 diacid])AQ[Aib]AFIEYLEEGGPSSGAPPPS-NH2), the EC50 was found to be 0.0458 nM at hGIPR [1]; 0.947 nM on hGcgR; 29.6 nM at hGLP-1R [2]; 12.4 nM on hGIPR [3]; 0.211 nM at hGLP-1R [4]; 151 nM at human GcgR.
Regarding `CC[C@H](C)[C@H](NC(=O)[C@H](Cc1ccccc1)NC(=O)[C@H](C)NC(=O)C(C)(C)NC(=O)[C@H](CCC(N)=O)NC(=O)[C@H](C)NC(=O)[C@H](CCCCNC(=O)COCCOCCNC(=O)CC[C@H](NC(=O)CCCCCCCCCCCCCCCCC(=O)O)C(=O)O)NC(=O)[C@H](CCCCN)NC(=O)[C@H](CC(=O)O)NC(=O)[C@H](CC(C)C)NC(=O)[C@](C)(CC(C)C)NC(=O)[C@@H](NC(=O)[C@H](CO)NC(=O)[C@H](Cc1ccc(O)cc1)NC(=O)[C@H](CC(=O)O)NC(=O)[C@H](CO)NC(=O)[C@@H](NC(=O)[C@](C)(Cc1ccccc1)NC(=O)[C@@H](NC(=O)CNC(=O)[C@H](CCC(N)=O)NC(=O)C(C)(C)NC(=O)[C@@H](N)Cc1ccc(O)cc1)[C@@H](C)O)[C@@H](C)O)[C@@H](C)CC)C(=O)N[C@@H](CCC(=O)O)C(=O)N[C@@H](Cc1ccc(O)cc1)C(=O)N[C@@H](CC(C)C)C(=O)N[C@@H](CCC(=O)O)C(=O)N[C@@H](CCC(=O)O)C(=O)NCC(=O)NCC(=O)N1CCC[C@H]1C(=O)N[C@@H](CO)C(=O)N[C@@H](CO)C(=O)NCC(=O)N[C@@H](C)C(=O)N1CCC[C@H]1C(=O)N1CCC[C@H]1C(=O)N1CCC[C@H]1C(=O)N[C@@H](CO)C(N)=O` [Example 394] (H-Y[Aib]QGT[αMeF]TSDYSI[αMeL]LDKK([AEEA-γGlu-C18 diacid])AQ[Aib]AFIEYLEEGGPSSGAPPPS-NH2), the EC50 at hGIPR [1] was determined as 0.018 nM; at hGcgR it was 5.63 nM; on hGLP-1R [2] it was 33.2 nM; on hGIPR [3] it was 7.22 nM; at hGLP-1R [4], 0.226 nM; on human GcgR, 1090 nM.
Consider `CC[C@H](C)[C@H](NC(=O)[C@H](Cc1ccccc1)NC(=O)[C@H](C)NC(=O)C(C)(C)NC(=O)[C@H](CCC(N)=O)NC(=O)[C@H](C)NC(=O)[C@H](CCCCNC(=O)COCCOCCNC(=O)CC[C@H](NC(=O)CCCCCCCCCCCCCCCCC(=O)O)C(=O)O)NC(=O)[C@H](CCCCN)NC(=O)[C@H](CC(=O)O)NC(=O)[C@H](CC(C)C)NC(=O)[C@](C)(CC(C)C)NC(=O)[C@@H](NC(=O)[C@H](CO)NC(=O)[C@H](Cc1ccc(O)cc1)NC(=O)[C@H](CC(=O)O)NC(=O)[C@H](CO)NC(=O)[C@@H](NC(=O)[C@](C)(Cc1ccccc1)NC(=O)[C@@H](NC(=O)CNC(=O)[C@H](CCC(N)=O)NC(=O)C(C)(C)NC(=O)[C@@H](N)Cc1ccc(O)cc1)[C@@H](C)O)[C@@H](C)O)[C@@H](C)CC)C(=O)N[C@@H](CCC(=O)O)C(=O)N[C@@H](Cc1ccc(O)cc1)C(=O)N[C@@H](CC(C)C)C(=O)N[C@@H](CCC(=O)O)C(=O)N[C@@H](CCC(=O)O)C(=O)NCC(=O)NCC(=O)N1CCC[C@H]1C(=O)N[C@@H](CO)C(=O)N[C@@H](CO)C(=O)NCC(=O)N[C@@H](C)C(=O)N1CCC[C@H]1C(=O)N1CCC[C@H]1C(=O)N1CCC[C@H]1C(=O)N[C@@H](CO)C(=O)N[C@@H](CCC(=O)O)C(=O)NCC(N)=O` [Example 395], for which the EC50 on hGIPR [1] stood at 0.0248 nM; on hGcgR, 5.55 nM; on hGLP-1R [2], 34.7 nM; on hGIPR [3], 6.69 nM; at hGLP-1R [4], 0.349 nM; at human GcgR, 1190 nM.
